Measured values published in patent US20110110918A1, “ROLE OF (DE)ACETYLATION IN COUNTERACTING PROTEIN AGGREGATION” (Rijksuniversiteit Groningen, priority 2008, published 2011).
“Also recorded” adds a separate entry of the source.

Tests used:
Type in all cases: cell-based, Human
HDQ119 aggregation = experiment: Filter trap assay of HDQ119 aggregation in HEK-293 cells cotransfected with EYFP-HDQ119 and DnaJB6 or DnaJB8; conditions: for ability of DnaJB8 and DnaJB6 to suppress HDQ119 aggregation in presence of HDAC inhibitor: HEK-293 expressing DnaJB6 or DnaJB8 (Tet on), Trichostatin A 100 and 500 nM, Tubacin 3 and 5 μM, Niltubacin 3 and 5 μM
Experimental: Cell culture and transient infections. Flp-In T-Rex HEK293 cells (Human embryonic kidney 293) stably expressing the tetracycline (tet) repressor were obtained from Invitrogen. Cells were cultured in DMEM (Gibco) supplemented with 10% foetal bovine serum (Sigma) and 100 units/ml penicillin and 100 μg/ml streptomycin (Invitrogen). 5 μg/ml Blasticidine (Sigma) and 100 μg/ml of Zeocin (Invitrogen) were added to the cultures. Cultures were maintained at 37° C. and 5% CO2 in a humidified incubator. For transient transfections, cells were grown to 50-60% confluence in 35 mm-diameter dishes coated with 0.001% of poly-L-lysine (Sigma) and on coated coverslips for confocal microscopy analyses. Cells were transfected with a total of 1 μg of DNA using Lipofectamine (Gibco) according to the manufacturer instructions.
Plasmids. The construction of pHDQ119-EYFP driving the expression of a fragment of exon-1 of huntingtin fused to the enhanced yellow fluorescent protein was previously described (Rujano et al., 2006). The construction of the tetracycline inducible HSP overexpression plasmids is described by Hageman et al. (manuscript in preparation). Briefly, first the V5 sequence containing a Kozak initiation codon and lacking a stop codon was inserted in pcDNA5/FRT/TO by oligo cloning. Subsequently, the coding sequence of each gene was amplified and the PCR products where purified, cleaved with the respective enzymes and ligated in frame in the pcDNA5/FRT/TO-V5 vector cleaved with the same set of enzymes. Presence of the correct insert was verified using DNA sequencing. Expression of the proteins at the expected molecular mass was verified by Western Not analysis against the V5-tag.
(§1) HDAC inhibition. […] Cell extracts prepared 36 hours after treatment were processed for filter trap essays and western Notting as described before. Increase in acetylated tubulin and histones as detected by western Notting was used as test for functionality.
Cell extracts and sample preparation. 24 hours after transfection cells were recovered by trypsinization, pelleted and resuspended in 1 ml of PBS. The cell suspension was centrifuged at 6000 rpm for 5 min at RT and the pellet was resuspended in 75 μl of RIPA buffer containing 2% SDS supplemented with protease inhibitors and sonicated. Protein content was determined with the DC protein essay (Bio-RAD). Western Not samples were prepared at a final concentration of 1 μg/μl in SDS-PAGE loading buffer and heated for 5 min at 100° C. Filter trap samples were prepared at a final concentration of 100 ng/μl, 20 ng/μl and 4 ng/μl in FTA buffer (10 mM Tris-Cl pH 8.0, 150 mM NaCl and 50 mM dithiothreitol)+2% SDS and heated for 5 min at 100° C. Samples were used immediately or kept frozen at −20° C.
Filter trap assay. Filter trap assay was performed based on the protocol described by Carra et al. (2005). Briefly, 10, 2 and 0.4 μg of protein extracts were applied onto a 0.2 μm pore Cellulose Acetate membrane prewashed with FTA+0.1% SDS. Mild suction was applied and the membrane was washed 3 times with the same buffer. […] For quantitative analysis, relative intensity of the bands was measured using GelPro Analyzer 4.5 gel analyzer software.

DNAJB8 = experiment: Mass spectrometry of immunoprecipitated DNAJB8 from TSA-treated cells; conditions: TSA-treated cells versus control sample, in-gel digestion
Experimental: Immunoprecipitation. Cells from a 35 mm dish were washed twice with PBS and lysed in 500 μl RIPA (25 mM Tris-HCl pH 7.6, 150 mM NaCl, 1% NP-40, 1% sodium deoxycholate, 0.1% SDS). Lysis was completed by passing the extracts five times through a 21-gauge needle. Subsequently, cell extracts were centrifuged twice at 10,000 G for 10 minutes at 4° C. and the supernatant transferred. Lysates were cleared with agarose A/G beads for 1 hour at 4° C. in a rotator. In the mean time, 0.5 μg V5 anti-body was incubated with […] agarose A/G plus agarose beads (Santa Cruz Biotechnology) and 50 μl RIPA for 1 hour at 4° C. Thereafter, samples were centrifuged at 1000 g for 30 seconds and the supernatant was transferred to a new tube together with 50 μl of the pre-incubated antibody and incubated for 1 more hour in a rotator. Thereafter, the beads were washed twice with RIPA and twice with PBS. After the final wash, 30 μl of RIPA was added together with 30 μl Laemmli sample buffer and boiled for 5 minutes. 10 μl of the extract was loaded and subjected for Western blot analysis.
Mass Spectometry. […]
The digested material was analyzed by nanoLC-MS/MS on an Ultimate 3000 system (Dionex, Amsterdam, The Netherlands) connected on-line with a LTQ-Orbitrap-XL mass spectrometer (ThermoFisher Scientific, San Jose, Calif.). […]

HDAC-6 = experiment: Western blot of acetylated tubulin as test for HDAC inhibitor functionality; conditions: control cells or cells expressing DnaJB8
Experimental: as §1
Western blot analysis. […] Proteins were transferred onto nitrocellulose membranes and probed with monoclonal anti-GFP antibody GL-8 (Clontech) at a 1:5000 dilution and monoclonal anti-V5 antibody (Invitrogen) at a 1:5000 dilution. GAPDH was used a loading control and was detected with a monoclonal antibody (RDI Research Diagnostics) at 1:1000 dilution. Blots were incubated with HRP-conjugated anti-mouse secondary antibody (Amersham) at 1:5000 dilution, and visualization was made using enhanced chemiluminescence and Hyperfilm (ECL, Amersham).

## CC(/C=C/C(=O)NO)=C\[C@@H](C)C(=O)c1ccc(N(C)C)cc1 [TSA, Trichostatin A]
HDQ119 aggregation; 0.5 μM TSA
  DnaJB8 and DnaJB6 activity on HDQ119 aggregation: completely annihilated DnaJB8 and DnaJB6 activity
HDQ119 aggregation
  ability of DnaJB8 and DnaJB6 to suppress HDQ119 aggregation in presence of HDAC inhibitor: but not after HDAC inhibition with TSA; also recorded: stronly reduced; also recorded: concentration dependent loss of the ability of DnaJB8 and DnaJB6 to reduce HQ119 aggregation
HDQ119 aggregation; empty plasmid (FRT TO), HEK-293, different concentrations of TSA
  HDQ119 aggregation in cells transfected with the empty vector: slightly enhanced HDQ119 aggregation
DNAJB8
  acetylated DNAJB8 peptides (K61, K216, K223) detected by mass spectrometry: 3 peaks in the TSA-treated samples that were absent in the control sample
HDAC-6
  tubulin acetylation (cellular content of acetylated tubulin): increases the cellular content of acytelated Tubulin; also recorded: equally effective in increasing tubulin acetylation

## O=C(CCCCCCC(=O)Nc1ccc([C@H]2O[C@@H](CSc3nc(-c4ccccc4)c(-c4ccccc4)o3)C[C@@H](c3ccc(CO)cc3)O2)cc1)NO [Tubacin]
HDQ119 aggregation
  ability of DnaJB8 and DnaJB6 to suppress HDQ119 aggregation in presence of HDAC inhibitor: did not result in inhibition of DnaJB8 and DnaJB6 activity
HDAC-6
  tubulin acetylation (cellular content of acetylated tubulin): increases the cellular content of acytelated Tubulin; also recorded: equally effective in increasing tubulin acetylation

B1: wild type DnaJB8: member of the Hsp40 family, chaperone counteracting protein aggregation; V5-tagged, tet-inducible overexpression (protein, UniProt Q8NHS0 1-232, looked up)
DnaJ homolog subfamily B …: MANYYEVLGVQASASPEDIKKAYRKLALRWHPDKNPDNKEEAEKKFKLVSEAYEVLSDSKKRSLYDRAGCDSWRAGGGASTPYHSPFDTGYTFRNPEDIFREFFGGLDPFSFEFWDSPFNSDRGGRGHGLRGAFSAGFGEFPAFMEAFSSFNMLGCSGGSHTTFSSTSFGGSSSGSSGFKSVMSSTEMINGHKVTTKRIVENGQERVEVEEDGQLKSVTVNGKEQLKWMDSK
modifications: V5 tag
notes: member of the Hsp40 family, chaperone counteracting protein aggregation; V5-tagged, tet-inducible overexpression
HDQ119 aggregation; Tet on, 24 h after cotransfection, filter trap 10, 2 and 0.4 ug protein/slot
  suppression of poly-Q huntingtin (HDQ119) aggregation by overexpressed DnaJB8 variant: substantially suppressed aggregation of poly-Q huntingtin
